ChEMBL document CHEMBL1140558, “An atom efficient, solvent-free, green synthesis and antimycobacterial evaluation of 2-amino-6-methyl-4-aryl-8-[(E)-arylmethylidene]-5,6,7,8-tetrahydro-4H-pyrano[3,2-c]pyridine-3-carbonitriles” (2007)
Converted amounts (≈) assume the structure as drawn.

Tested on: Mycobacterium tuberculosis
Experiment: Antimycobacterial activity against multidrug-resistant Mycobacterium tuberculosis by agar dilution method
Format: functional

Point of comparison: `CN1CC2=C(OC(N)=C(C#N)C2c2ccc(F)cc2)/C(=C/c2ccc(F)cc2)C1` (stereo not drawn), MIC 0.97 µM (≈ 0.38 µg/mL). Against it:
- CN1CC2=C(OC(N)=C(C#N)C2c2cccc(F)c2)/C(=C/c2cccc(F)c2)C1 (stereo not drawn) — 2.1-fold higher, 1.99 µM (≈ 0.779 µg/mL)
- COc1c(N2CCNC(C)C2)c(F)cc2c(=O)c(C(=O)O)cn(C3CC3)c12 (stereo not drawn) [GATIFLOXACIN] — 8.6-fold higher, 8.34 µM (≈ 3.13 µg/mL)
- NNC(=O)c1ccncc1 [ISONIAZID] — 47-fold higher, 45.6 µM (≈ 6.25 µg/mL)
- CN1CC2=C(OC(N)=C(C#N)C2c2ccc(Cl)cc2)/C(=C/c2ccc(Cl)cc2)C1 (stereo not drawn) — 1.9-fold higher, 1.84 µM (≈ 0.781 µg/mL)
- CN1CC2=C(OC(N)=C(C#N)C2c2cccc([N+](=O)[O-])c2)/C(=C/c2cccc([N+](=O)[O-])c2)C1 (stereo not drawn) — 1.8-fold higher, 1.75 µM (≈ 0.78 µg/mL)
- CN1CC2=C(OC(N)=C(C#N)C2c2ccccc2Cl)/C(=C/c2ccccc2Cl)C1 (stereo not drawn) — 3.8-fold higher, 3.68 µM (≈ 1.56 µg/mL)
- CN1CC2=C(OC(N)=C(C#N)C2c2ccc(N(C)C)cc2)/C(=C/c2ccc(N(C)C)cc2)C1 (stereo not drawn) — 2.3-fold lower, 0.43 µM (≈ 0.19 µg/mL)
